Laboratory results from patent publication US9173425B2, “High-potency sweetener composition with vitamin and compositions sweetened therewith” (THE COCA-COLA COMPANY, priority 2005, dated 2015).

Tests used:
[1] = test system: panel of experts in the sensory evaluation of foods and beverages; assay: Sensory evaluation of sweetness linger and sugar-like taste by expert panel; assay type: in vivo, human; design: key: 0=no sweetness linger; 1=very slight sweetness linger; 2=slight sweetness linger; 3=moderate sweetness linger; 4=moderately high sweetness linger; 5=high sweetness linger; details: for Sweetness Linger rating defined by protocol: scale anchors: sucrose, 500 ppm of REBA control sample
Experimental: Sensory evaluation of the samples prepared in Example Set G was carried out under the following protocol, similar to that described hereinabove. In this test protocol, none of the samples were swallowed. All samples were expectorated and the mouth was rinsed with water after the tasting. Immediately upon sensing maximal sweetness, the sample was expectorated, the mouth was rinsed with water and the rate of sweetness decay (“Sweetness Linger”) was measured, where attention was focused on the sweetness 3-4 min after the water rinse. After sample tasting was complete, a salty oyster cracker was chewed followed by a water rinse, and at least 5 minutes followed before tasting the next sample. The sweetness linger was rated by a panel of experts in the sensory evaluation of foods and beverages using the following scale: 0=no sweetness linger, 1=very slight sweetness linger, 2=slight sweetness linger, 3=moderate sweetness linger, 4=moderately high sweetness linger, 5=high sweetness linger.
The “Sweetness Linger” rating for sucrose observed by this protocol is defined as 0. The Sweetness Linger of a 500 ppm of REBA control sample is defined as 5. Experimental samples were tasted by the same protocol, always allowing sufficient time between samples to ensure re-equilibration of the sensory system. Re-tasting of control samples during the course of the experiment was allowed and encouraged.
The comparison taste test was performed between two controls and addition of sweet taste improving additive on the onset and/or sweetness linger.
Sweet taste improving compositions were combined with a REBA solution to determine their effect on sweetness linger. Screening of the initial sample, or further dilutions, allowed identification of concentrations which were just above-threshold, herein defined as “near-threshold concentrations.” The near-threshold additive concentrations, a 6- to 100-fold higher additive concentration (depending on the off-taste intensity), and a mid-level additive concentration (halfway between the near-threshold and higher additive concentration) were evaluated to determine the effect on sweetness linger of a REBA solution. […]
Sensory evaluation using the protocol described in Example Set G then was used to evaluate the sweetness linger of the REBA solutions.

[2] = Sweetness level as sucrose equivalent
[3] = Rate of dissolution of rebaudioside A polymorphs in H2O at 25° C.; assay type: physicochemical; details: result in words
Excerpt: (§1) The purification of rebaudioside A by crystallization as described above results in the formation of at least four different polymorphs: Form 1: a rebaudioside A hydrate; Form 2: an anhydrous rebaudioside A; Form 3: a rebaudioside A solvate; and Form 4: an amorphous rebaudioside A. The aqueous organic solution and temperature of the purification process influence the resulting polymorphs in the substantially pure rebaudioside A composition. FIGS. 1-5 are exemplary powder x-ray diffraction (XRPD) scans of polymorphs Form I (hydrate), Form 2 (anhydrate), Form 3A (methanol solvate), Form 3B (ethanol solvate), and Form 4 (amorphous), respectively.

[4] = Alcohol content of rebaudioside A polymorphs; assay type: physicochemical
Excerpt: as §1

[5] = Moisture content of rebaudioside A polymorphs; assay type: physicochemical
Excerpt: as §1

[6] = assay type: physicochemical
Experimental: A solution of rebaudioside A (>97% pure by HPLC) was prepared in double distilled water (12.5 gm in 50 mL, 25% concentration) by stirring the mixture at 40° C. for 5 minutes. An amorphous rebaudioside A polymorph was formed by immediately using the clear solution for spray drying with the Lab-Plant spray drier SD-04 instrument (Lab-Plant Ltd., West Yorkshire, U.K.). The solution was fed through the feed pump into the nozzle atomizer which atomized it into a spray of droplets with the help of a constant flow of nitrogen/air. […] This dry powder (11-12 g, H2O 6.74%) was discharged continuously from the drying chamber and was collected in a bottle.

| Compound | Rate of dissolution in H2O at 25° C. [3] | Alcohol content [4] | Moisture content [5] [%] | Sweetness Linger rating defined by protocol [1] | also measured |
| --- | --- | --- | --- | --- | --- |
| OC[C@H]1O[C@@](CO)(O[C@H]2O[C@H](CO)[C@@H](O)[C@H](O)[C@H]2O)[C@@H](O)[C@@H]1O [sugar, sucrose] |  |  |  | 0 |  |
| rebaudioside A |  |  |  | 5 | sweetness linger rating ([1]; control: 400 ppm REBA in citric acid/potassium citrate composition, no additive): 5; sweetness linger rating ([1]; control: 500 ppm REBA in carbon-treated water, phosphoric acid (75%) pH 2.4-2.5): 5; sucrose equivalence of sweetness ([2]; 180 ppm rebaudioside A in 1:1 diluted beverage): 5 % sucrose; sucrose equivalence of sweetness ([2]; 400 ppm REBA in citric acid/potassium citrate composition): 8 g sucrose |
| rebaudioside A [Form 1] | Very low | <0.5% | >5 |  |  |

Continued, in another order:

| Rate of dissolution in H2O at 25° C. [3] | Alcohol content [4] | Moisture content [5] [%] | Compound | Sweetness Linger rating defined by protocol [1] | also measured |
| --- | --- | --- | --- | --- | --- |
| Intermediate | <1% | <1 | rebaudioside A [Form 2] |  |  |
| High | 1-3% | <3 | rebaudioside A [Form 3] |  |  |
| High |  | 6.74 | rebaudioside A [Form 4] |  | solubility in water at room temperature [6]: > 35.0% |
